Laboratory results taken from ChEMBL document CHEMBL3992488, “Anticancer agents interacting with membrane glucose transporters” (Medchemcomm, 2016).
One block for each molecule: values may come before it.

Assays:
[1] = target: T1, Solute carrier family 2, facilitated glucose transporter member 1 (Homo sapiens, UniProt P11166); test: Inhibition of GLUT1 in human MCF7 cells assessed as reduction in [3H]-DG uptake pretreated for 20 mins followed by [3H]-DG addition measured after 6 mins by liquid scintillation counting method; format: cell-based
T1 sequence (P11166 whole entry): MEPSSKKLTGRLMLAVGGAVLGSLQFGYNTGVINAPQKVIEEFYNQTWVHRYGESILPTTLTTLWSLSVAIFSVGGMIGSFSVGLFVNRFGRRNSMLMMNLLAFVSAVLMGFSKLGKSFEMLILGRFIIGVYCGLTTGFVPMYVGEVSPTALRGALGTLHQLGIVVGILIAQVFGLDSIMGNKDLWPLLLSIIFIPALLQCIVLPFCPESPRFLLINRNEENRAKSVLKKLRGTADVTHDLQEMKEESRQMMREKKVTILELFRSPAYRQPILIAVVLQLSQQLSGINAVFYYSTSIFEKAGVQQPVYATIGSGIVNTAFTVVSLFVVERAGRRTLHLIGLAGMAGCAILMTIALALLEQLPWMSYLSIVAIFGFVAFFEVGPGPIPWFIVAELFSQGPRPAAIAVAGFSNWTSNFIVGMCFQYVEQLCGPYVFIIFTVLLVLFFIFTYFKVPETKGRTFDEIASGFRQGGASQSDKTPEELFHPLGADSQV

[2] = Non-competitive inhibition of glucose transporter in HTR-8/SVneo cells assessed as reduction in [3H]DG uptake preincubated for 20 mins followed by [3H]DG addition after 10 mins by liquid scintillation counting method; format: cell-based; conditions: Homo sapiens
[3] = target: T1, Solute carrier family 2, facilitated glucose transporter member 1; test: Inhibition of GLUT1 in human A431 cells assessed as reduction in 2-[1,2-3H]deoxy-D-glucose uptake measured after 30 mins by liquid scintillation counting method; format: cell-based
A549 = test: Antitumor activity against human A549 cells xenografted in NU/J nude mouse assessed as inhibition of tumor volume at 10 mg/kg, ip administered daily for 10 weeks measured every 7 days during compound dosing relative to control; format: functional
[4] = target: T1, Solute carrier family 2, facilitated glucose transporter member 1; test: Non-competitive inhibition of GLUT1-mediated facilitative uptake of [3H]-2-deoxy-D-glucose in human erythrocyte membranes; format: cell membranes
[5] = target: T1, Solute carrier family 2, facilitated glucose transporter member 1; test: Inhibition of GLUT1-mediated glucose uptake in human A549 cells assessed as reduction in ATP synthesis up to 30 mins in presence of mitochondrial function blocker antimycin A; format: cell-based
[6] = target: T1, Solute carrier family 2, facilitated glucose transporter member 1; test: Inhibition of GLUT1 (unknown origin)-mediated glucose uptake expressed in CHO-K1 cells assessed as reduction in ATP synthesis up to 30 mins in presence of mitochondrial function blocker antimycin A; format: cell-based
[7] = target: T1, Solute carrier family 2, facilitated glucose transporter member 1; test: Inhibition of human GLUT1 expressed in human DLD1 cells assessed as reduction in glucose uptake; format: cell-based
[8] = target: T2, Solute carrier family 2, facilitated glucose transporter member 4 (Homo sapiens, UniProt P14672); test: Inhibition of human GLUT4 expressed in CHO cells assessed as reduction in glucose uptake; format: cell-based
T2 sequence (P14672 whole entry): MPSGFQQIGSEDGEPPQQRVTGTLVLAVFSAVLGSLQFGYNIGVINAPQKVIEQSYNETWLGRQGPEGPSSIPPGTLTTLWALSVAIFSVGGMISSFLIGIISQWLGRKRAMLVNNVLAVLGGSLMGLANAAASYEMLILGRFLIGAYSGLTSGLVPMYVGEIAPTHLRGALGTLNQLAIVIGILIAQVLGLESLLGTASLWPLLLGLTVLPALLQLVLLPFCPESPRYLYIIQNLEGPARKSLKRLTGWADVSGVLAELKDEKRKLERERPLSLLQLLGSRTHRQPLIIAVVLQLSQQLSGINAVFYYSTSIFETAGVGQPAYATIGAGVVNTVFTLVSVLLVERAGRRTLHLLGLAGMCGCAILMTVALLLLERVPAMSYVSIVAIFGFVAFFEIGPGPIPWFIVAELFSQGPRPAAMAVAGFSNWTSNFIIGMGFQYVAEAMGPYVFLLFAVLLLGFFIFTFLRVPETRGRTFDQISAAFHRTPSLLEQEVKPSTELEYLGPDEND

[9] = target: T1, Solute carrier family 2, facilitated glucose transporter member 1; test: Mixed type non-competitive inhibition of glucose displaceable binding of [4-3H]cytochalasin B to GLUT1 in human erythrocyte membranes after 10 mins; format: cell membranes
PC-3 = test: Cytotoxicity against human PC3 cells after 48 hrs by SRB assay; format: functional, cell-based; conditions: PC-3, 48 h
[10] = target: T3, Solute carrier family 2, facilitated glucose transporter member 2 (Homo sapiens, UniProt P11168); test: Inhibition of human GLUT2 expressed in Xenopus laevis oocytes assessed as reduction in [3H] 2-deoxyglucose uptake by scintillation spectrometric method; format: cell-based
T3 sequence (P11168 whole entry): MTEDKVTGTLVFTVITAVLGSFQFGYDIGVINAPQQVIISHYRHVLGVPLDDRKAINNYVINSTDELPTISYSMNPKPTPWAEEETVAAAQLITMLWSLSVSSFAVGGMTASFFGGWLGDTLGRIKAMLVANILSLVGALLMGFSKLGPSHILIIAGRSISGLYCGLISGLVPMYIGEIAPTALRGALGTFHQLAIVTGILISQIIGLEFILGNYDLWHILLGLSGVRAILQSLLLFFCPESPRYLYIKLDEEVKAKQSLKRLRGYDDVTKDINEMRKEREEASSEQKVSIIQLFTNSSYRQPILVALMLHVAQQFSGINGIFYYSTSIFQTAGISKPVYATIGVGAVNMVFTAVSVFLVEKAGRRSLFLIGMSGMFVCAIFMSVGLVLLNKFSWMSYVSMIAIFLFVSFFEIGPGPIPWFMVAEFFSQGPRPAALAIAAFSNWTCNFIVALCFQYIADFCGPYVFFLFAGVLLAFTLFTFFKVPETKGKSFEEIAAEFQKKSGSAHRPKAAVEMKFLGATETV

[11] = target: T3, Solute carrier family 2, facilitated glucose transporter member 2; test: Inhibition of human GLUT2 expressed in Xenopus laevis oocytes assessed as reduction in [14C]fructose uptake by scintillation spectrometric method; format: cell-based
[12] = target: T4, Solute carrier family 2, facilitated glucose transporter member 4 (Rattus norvegicus, UniProt P19357); test: Competitive inhibition of GLUT4 in Wistar rat adipocytes assessed as reduction in insulin-stimulated 3-O-[3H]methyl-D-glucose uptake measured for 30 secs by Lineweaver-Burk plot analysis; format: cell-based
T4 sequence (P19357 whole entry): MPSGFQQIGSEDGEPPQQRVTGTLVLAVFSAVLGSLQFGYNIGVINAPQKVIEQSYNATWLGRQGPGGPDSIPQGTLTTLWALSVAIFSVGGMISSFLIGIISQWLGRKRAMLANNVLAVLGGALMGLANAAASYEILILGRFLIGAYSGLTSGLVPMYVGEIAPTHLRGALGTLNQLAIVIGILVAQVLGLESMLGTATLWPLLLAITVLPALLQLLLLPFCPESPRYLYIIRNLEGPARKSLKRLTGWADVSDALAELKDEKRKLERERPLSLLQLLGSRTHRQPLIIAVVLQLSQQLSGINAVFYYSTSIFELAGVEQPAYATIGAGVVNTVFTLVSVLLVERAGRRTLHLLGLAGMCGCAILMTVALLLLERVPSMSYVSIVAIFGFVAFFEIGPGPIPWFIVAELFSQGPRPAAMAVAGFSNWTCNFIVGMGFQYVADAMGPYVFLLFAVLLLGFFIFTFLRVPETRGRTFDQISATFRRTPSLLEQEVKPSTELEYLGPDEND

A2780S = test: Cytotoxicity against human A2780S cells; format: functional, cell-based
A2780cisR = test: Cytotoxicity against human A2780cisR cells; format: functional, cell-based

IC50 [1]: 4000 nM
SMILES: O=c1c(O)c(-c2ccc(O)cc2)oc2cc(O)cc(O)c12 [KAEMPFEROL]

IC50 [2]: 3550 nM
SMILES: COc1cc(O)c(CC=C(C)C)c(O)c1C(=O)/C=C/c1ccc(O)cc1 [XANTHOHUMOL]

IC50 [3]: 4.9 nM
SMILES: C/C=C(\C)[C@H](O[C@@H]1O[C@H](CO)[C@@H](O)[C@H](O)[C@H]1O)[C@H](C)/C=C(C)/C=C/C/C(C)=C/Cc1nc(OC)c(OC)c(O)c1C

SMILES: O=C(Oc1cccc(F)c1OC(=O)c1cccc(O)c1)c1cccc(O)c1
inhibition in vivo at 10 mg/kg (A549): > 70%

Ki [4]: 1200 nM
IC50 [5]: 10000 nM
IC50 [6]: 2000 nM
SMILES: CCOC(=O)[C@@]12CCCCC/C=C\1N(Cc1cccc3ccccc13)C(=O)[C@H]2CC(=O)N1CCN(C(=O)c2ccco2)CC1

IC50 [7]: 140 nM
IC50 [8]: 90 nM
SMILES: COc1ccc(CC(=O)N[C@@H](Cc2ccccc2Br)C(=O)N[C@@H](C)c2ccccc2)cc1

SMILES: Cc1cc2c(C(C)C)c(O)c(O)c(C=O)c2c(O)c1-c1c(C)cc2c(C(C)C)c(O)c(O)c(C=O)c2c1O [GOSSYPOL]
Ki [9]: 20000 nM

SMILES: O=C1C[C@@H]2/C(=C(O)\C=C\c3ccccc3)C(=O)C=C[C@@H]2O1 [CRYPTOCARYONE]
IC50 (PC-3): 1600 nM

IC50 [7]: 267 nM
IC50 [8]: 195 nM
SMILES: C[C@H](NC(=O)[C@H](Cc1ccc(F)cc1)NC(=O)Cc1cccc(O)c1)c1ccccc1

SMILES: O=c1c(O)c(-c2ccc(O)c(O)c2)oc2cc(O)cc(O)c12 [QUERCETIN]
IC50 [10]: 12000 to 17000 nM
IC50 [11]: 12000 to 17000 nM
Ki [12]: 16000 nM

SMILES: CC(=O)N[C@H](C(=O)N[C@H]1C(O)O[C@H](CO)[C@@H](O)[C@@H]1O)C(C)(C)SN=O (stereo partly drawn)
IC50 (A2780S): 4.2 nM
IC50 (A2780cisR): 380 nM
